19 compounds from US8648099B2 (Hoffmann-La Roche Inc., priority 2011, dated 2014) can be followed below.

One assay relates to ABCA1 protein. The assay is described as follows: Detection of upregulation of ABCA1 protein in cells (ApoA-I binding, high content imaging). Format: cell-based. Particulars: THP-1 macrophage cells; for EC50: 24 hrs compound incubation, read-out: EC50 [μM] ABCA1 protein increasing efficacy; for % increase of ABCA1 at 3 μM: compound at 3 μM, 24 hrs. As to the method:
The ability of compounds of the invention to increase the level of ABCA1 protein is determined in replicate cultures of THP-1 macrophage cells in 96-well microplates. Cells are plated at an initial density of 100,000 cells/well in 100 μl medium and differentiated to adherent macrophages with the addition of PMA (100 nM) for 68 hrs in 10% fetal bovine serum, 3 μl/L of b-mercaptoethanol, RPMI-1640 medium. Then, cells are incubated with RPMI-1640 medium containing 1% FCS, 25 μg/ml acetylated LDL, for 24 hours at 37° C. Following incubation with acetylated LDL, cells are washed twice with 50 μl PBS and incubated with 100 μl of RPMI-1640 medium containing the compound of interest solubilized in DMSO for an additional 24 hrs. The final DMSO concentration in presence of cells is maintained at 0.5%. ApoA-I binding assay using High Content Image Analysis is initiated by replacing with fresh medium, RPMI without Phenol Red, 0.2% BSA containing AlexaFluor®647 labeled ApoA-I for 2 h/37° C./5% CO2. Then, cells are fixed with 4% Formaldehyde in PBS (15 min, RT). Following Nuclei are stained with Hoechst solution (3 μM PBS) and Cytoplasm with Cell Mask Blue (2 μg/ml PBS), 15 min, RT. Finally the stained cells are fixed with a second round of formaldehyde treatment. Fixed stained cells are washed and kept in PBS at 4° C. and can be read immediately until one month after preparation.
The Alexa Fluor 647-labeled Apolipoprotein A-I (20 nM) was prepared as follows: Human recombinant Apolipoprotein A-I (ApoA-I) was exchanged to a buffer of 0.02 M NaHCO3 at pH 8.2 on an NAP desalting column (GE Healthcare) and brought to a concentration to 40 μM (1.13 mg/ml) by adjustment with the same buffer. The ApoA-I was fluorescently labeled by incubation with Alexa Fluor carboxylic acid succimidyl ester (Alexa Fluor 647, Invitrogen A-20006) at a 2:1 molar ratio (Alexa to ApoA-I) for 1 h under shaking at RT. The remaining unconjugated label was removed by buffer exchange to 0.02M NaHCO3 at pH 8.2.
Imaging and data collection were performed on an OPERA confocal microplate imaging reader using a 20× water immersion objective and UV360 or 405 laser to identify the cell nuclei and a 635 laser to identify the fluorescent ApoA-I. Eight fields of view are captured per well. Image capture and analysis was performed with the Acapella software. Background fluorescence detected in control wells without ApoA-I was subtracted.
Using XLfit3 program (ID Business Solutions Ltd. UK), the model 205 for Dose Response One Site is used to calculate the EC50 values. […] More particularly, the compounds of the present invention have EC50 values in a range of 0.1 μM to 3 μm.

The target in the next assay is T1, human CB1 receptor (Homo sapiens, UniProt P21554).
T1 construct: expressed in transfected cells; host or cells: human embryonic kidney (HEK) cells, Semliki Forest Virus system, membrane preparations
The assay can be described thus: CB1 receptor affinity ([3H]-CP-55,940 displacement, HEK cell membranes). Format: binding. Particulars: read-out: CB1 receptor affinity [% inhibition @ 10 μM]. The protocol: (§1) The affinity of the compounds of the invention for cannabinoid receptors was determined using membrane preparations of human embryonic kidney (HEK) cells in which the human CB1 receptor is transiently transfected using a Semliki Forest Virus system in conjunction with [3H]-CP-55,940 as radioligand. After incubation of freshly prepared cell membrane preparation with the [^3H]-ligand, with or without addition of compounds of the invention, separation of bound and free ligand was performed by filtration over glass fiber filters. Radioactivity on the filter was measured by scintillation counting.
(§2) The ability of the compounds to displace the radioligand [^3H]-CP-55,940 was measured at a concentration of 10 μM and values provided as [% inhibition @ 10 μM] both for the CB1 and CB2 receptor assay, The lower % inhibition is, the lower the likelihood of side effects based on CB1 or CB2 receptor inhibition is.

Another assay deals with T2, human CB2 receptor (Homo sapiens, UniProt P34972).
T2 construct: expressed in transfected cells; host or cells: human embryonic kidney (HEK) cells, Semliki Forest Virus system, membrane preparations
The assay can be described thus: CB2 receptor affinity ([3H]-CP-55,940 displacement, HEK cell membranes). Type of assay: binding. The following applies: displacement of [3H]-CP-55,940 at 10 μM. As to the method: as §1, with “cannabinoid CB2” for “cannabinoid”, “CB2” for “CB1”, “[^3H]-CP-55,940” for “[3H]-CP-55,940”
as §2
A general note: Loss of bound radioactivity is the signal in a displacement assay; it reports binding, not function.

Setting [1] is: displacement of [3H]-CP-55,940 at 10 μM.

A word on the EC50: it is the concentration needed to bring the measured effect to its halfway point. Broadly, the inhibition is the drop in the measured response relative to a control, in per cent.

SMILES strings stand for the structures. Like-named read-outs stand apart in the source and are kept apart here.

T2 sequence (P34972 whole entry): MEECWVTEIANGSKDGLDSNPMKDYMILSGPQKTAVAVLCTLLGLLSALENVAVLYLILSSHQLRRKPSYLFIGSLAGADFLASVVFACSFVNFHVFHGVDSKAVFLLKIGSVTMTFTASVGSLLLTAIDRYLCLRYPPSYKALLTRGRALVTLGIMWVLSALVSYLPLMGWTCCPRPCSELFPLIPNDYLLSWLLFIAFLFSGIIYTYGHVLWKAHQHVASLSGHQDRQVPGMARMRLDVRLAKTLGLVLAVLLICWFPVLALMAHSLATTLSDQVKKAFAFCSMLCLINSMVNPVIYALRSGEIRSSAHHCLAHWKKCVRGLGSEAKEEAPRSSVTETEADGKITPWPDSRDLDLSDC
T1 sequence (P21554 whole entry): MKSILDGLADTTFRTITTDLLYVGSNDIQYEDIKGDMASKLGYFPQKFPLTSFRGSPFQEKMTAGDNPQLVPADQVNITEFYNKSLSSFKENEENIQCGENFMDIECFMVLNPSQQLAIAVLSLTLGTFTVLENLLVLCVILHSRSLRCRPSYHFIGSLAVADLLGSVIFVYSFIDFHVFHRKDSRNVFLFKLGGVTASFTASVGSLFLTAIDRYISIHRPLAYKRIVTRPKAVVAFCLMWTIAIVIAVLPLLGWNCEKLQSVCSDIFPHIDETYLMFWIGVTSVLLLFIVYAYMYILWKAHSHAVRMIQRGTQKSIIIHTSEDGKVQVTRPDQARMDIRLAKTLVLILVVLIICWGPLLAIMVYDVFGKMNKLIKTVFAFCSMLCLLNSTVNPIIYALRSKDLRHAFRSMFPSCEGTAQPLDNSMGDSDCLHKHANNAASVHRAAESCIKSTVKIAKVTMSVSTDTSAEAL

As for `CN(NC(=O)c1cnc(OCC2CC2)c(C2CC2)c1)c1ccccc1` [Example 43, 5-cyclopropyl-6-cyclopropylmethoxy-nicotinic acid N′-methyl-N′-phenyl-hydrazide], the EC50 in the assay on ABCA1 protein amounted to 1.04 µM. Further, the inhibition at 10 µM at human CB1 receptor (setting [1]) came out at 28%; on human CB2 receptor it was 39%.
The corresponding values for `O=C(NN1CCC(O)CC1)c1cnc(OC2CCC2)c(-c2ccco2)c1` [Example 50, 6-cyclobutoxy-5-furan-2-yl-N-(4-hydroxy-piperidin-1-yl)-nicotinamide] are 0.16 µM, 15% and 6%.
On to `O=C(NN1CCCC1)c1cnc(OCC(F)(F)F)c(C2CCCCC2)c1` [Example 21, 5-cyclohexyl-N-(pyrrolidin-1-yl)-6-(2,2,2-trifluoroethoxy)-3-pyridinecarboxamide], for which the “% increase of ABCA1 at 3 μM” value with ABCA1 protein is recorded as greater than 45%@ 3 μM. For the same compound, the figures for the inhibition at 10 µM at human CB1 receptor (setting [1]) and at human CB2 receptor were 39% and -17%, respectively.
`O=C(NNCc1ccncc1)c1cnc(OCC(F)(F)F)c(C2CC2)c1` [Example 46, 5-cyclopropyl-6-(2,2,2-trifluoro-ethoxy)-nicotinic acid N′-pyridin-4-ylmethyl-hydrazide]: the “% increase of ABCA1 at 3 μM” value in the assay on ABCA1 protein is greater than 45%@ 3 μM. The inhibition at 10 µM on human CB1 receptor (setting [1]) and at human CB2 receptor was 11% throughout.
For `CN(NC(=O)c1cnc(OCC(F)(F)F)c(-c2cccc(F)c2)c1)c1ccccc1` [Example 56, 5-(3-fluoro-phenyl)-6-(2,2,2-trifluoro-ethoxy)-nicotinic acid N′-methyl-N′-phenyl-hydrazide], in the assay with ABCA1 protein, the “% increase of ABCA1 at 3 μM” value was greater than 45%@ 3 μM. Besides, the inhibition at 10 µM worked out at 28% at human CB1 receptor (setting [1]) and 16% at human CB2 receptor.
As for `CN(NC(=O)c1cnc(OCC(F)(F)F)c(C2CC2)c1)c1ccc(F)cc1` [Example 34, 5-cyclopropyl-6-(2,2,2-trifluoro-ethoxy)-nicotinic acid N′-(4-fluoro-phenyl)-N′-methyl-hydrazide], in the assay on ABCA1 protein, the EC50 was 0.83 µM. The values for the inhibition at 10 µM on human CB1 receptor (setting [1]) and at human CB2 receptor were 15% and 8%, respectively.
The corresponding values for `COC[C@@H]1CCCN1NC(=O)c1cnc(OCC(F)(F)F)c(C2CCCC2)c1` [Example 17, (S)-5-cyclopentyl-N-(2-(methoxymethyl)pyrrolidin-1-yl)-6-(2,2,2-trifluoroethoxy)-3-pyridinecarboxamide] are 0.12 µM, 33% and 3%.
The corresponding values for `CN1CCN(NC(=O)c2cnc(OCC(F)(F)F)c(-c3ccc(Cl)cc3)c2)CC1=O` [Example 27, 5-(4-chlorophenyl)-N-(4-methyl-3-oxopiperazin-1-yl)-6-(2,2,2-trifluoroethoxy)-3-pyridinecarboxamide] are 2.39 µM, 25% and -11%.
The corresponding values for `N#Cc1ccc(-c2cc(C(=O)NN3CCC(CCO)CC3)cnc2OCC(F)(F)F)cc1` [Example 38, 5-(4-cyano-phenyl)-N-[4-(2-hydroxy-ethyl)-piperidin-1-yl]-6-(2,2,2-trifluoro-ethoxy)-nicotinamide] are 0.15 µM, 37% and -6%.
With `CN(NC(=O)c1cnc(OCC(F)(F)F)c(C2CC2)c1)c1ccccc1` [Example 30, 5-cyclopropyl-6-(2,2,2-trifluoro-ethoxy)-nicotinic acid N′-methyl-N′-phenyl-hydrazide], in the assay on ABCA1 protein, the “% increase of ABCA1 at 3 μM” value is greater than 45%@ 3 μM. In addition, the inhibition at 10 µM at human CB1 receptor (setting [1]) turned out to be 24%; at human CB2 receptor, 13%.
On to `CC(C)(C)OC(=O)N1CCCN1C(=O)c1cnc(OCC(F)(F)F)c(-c2ccc(Cl)cc2)c1` [Example 4, t-butyl 2-[(5-(4-chlorophenyl)-6-(2,2,2-trifluoroethoxy)-3-pyridinyl)carbonyl]-pyrazolidine-1-carboxylate], for which, in the assay with ABCA1 protein, the “% increase of ABCA1 at 3 μM” value is reported as greater than 45%@ 3 μM. Besides, the inhibition at 10 µM at human CB1 receptor (setting [1]) was 40%; at human CB2 receptor, 24%.
The corresponding values for `O=C(NNCC(F)(F)F)c1cnc(OCC(F)(F)F)c(-c2ccc(Cl)cc2)c1` [Example 1, 5-(4-chlorophenyl)-6-(2,2,2-trifluoroethoxy)-N′-(2,2,2-trifluoroethyl)-3-pyridinecarboxylic acid hydrazide] are greater than 45%@ 3 μM, 42% and 10%.
The corresponding values for `CN(NC(=O)c1cnc(OCC(F)(F)F)c(C2CC2)c1)c1ccc(C#N)cc1` [Example 54, 5-cyclopropyl-6-(2,2,2-trifluoro-ethoxy)-nicotinic acid N′-(4-cyano-phenyl)-N′-methyl-hydrazide] are greater than 45%@ 3 μM, 36% and 17%.
Taken in the same sequence, the figures for `CN(NC(=O)c1cnc(OC2CCC2)c(C2CC2)c1)c1ccc(F)cc1` [Example 47, 6-cyclobutoxy-5-cyclopropyl-nicotinic acid N′-(4-fluoro-phenyl)-N′-methyl-hydrazide] were greater than 45%@ 3 μM, 25% and 7%.
As for `CN(NC(=O)c1cnc(OC2CCC2)c(-c2ccco2)c1)c1ccncc1` [Example 52, 6-cyclobutoxy-5-furan-2-yl-nicotinic acid N′-methyl-N′-pyridin-4-yl-hydrazide], the EC50 in the assay on ABCA1 protein is 5.8 µM. The inhibition at 10 µM on human CB1 receptor (setting [1]) came out at 31%; at human CB2 receptor, 19%.
For the compound `O=C(NN1CCC(CO)CC1)c1cnc(OCC(F)(F)F)c(-c2ccc(Cl)cc2)c1` [Example 26, 5-(4-chlorophenyl)-N-(4-(hydroxymethyl)piperidin-1-yl)-6-(2,2,2-trifluoroethoxy)-3-pyridinecarboxamide], in the assay with ABCA1 protein, the “% increase of ABCA1 at 3 μM” value is given as greater than 45%@ 3 μM. Besides, the inhibition at 10 µM at human CB1 receptor (setting [1]) was 37%; at human CB2 receptor, -17%.
As for `O=C(NN1CCCC1=O)c1cnc(OCC(F)(F)F)c(C2CCCC2)c1` [Example 15, 5-cyclopentyl-N-(2-oxopyrrolidin-1-yl)-6-(2,2,2-trifluoroethoxy)-3-pyridinecarboxamide], in the assay with ABCA1 protein, the “% increase of ABCA1 at 3 μM” value is on record as greater than 45%@ 3 μM. Moreover, the figures for the inhibition at 10 µM on human CB1 receptor (setting [1]) and on human CB2 receptor were 13% and 12%, respectively.
As to `O=C(NN1CCC(O)CC1)c1cnc(OCC(F)(F)F)c(-c2ccc(Cl)cc2)c1` [Example 6, 5-(4-chlorophenyl)-N-(4-hydroxypiperidin-1-yl)-6-(2,2,2-trifluoroethoxy)-3-pyridinecarboxamide], the EC50 with ABCA1 protein turned out to be 1.11 µM. The inhibition at 10 µM is 11% on human CB1 receptor and -9% at human CB2 receptor.
Turning to `O=C(NN1CCOCC1)c1cnc(OCC(F)(F)F)c(-c2ccc(Cl)cc2)c1` [Example 2, 5-(4-chlorophenyl)-N-morpholino-6-(2,2,2-trifluoroethoxy)-3-pyridinecarboxamide], the “% increase of ABCA1 at 3 μM” value in the assay on ABCA1 protein is greater than 45%@ 3 μM. Further, the results for the inhibition at 10 µM at human CB1 receptor (setting [1]) and on human CB2 receptor were 43% and 8%, respectively.
